Converted amounts (≈) assume the structure as drawn. Where two headings read alike, the source gives them in different places.
Key:
Assay type in all cases: cell-based
[1] = test system: Pseudomonas aeruginosa strain PA01; test: Antibiotic disc diffusion assay (zone of inhibition); conditions: antibiotic disc on Iso-Sensitest agar, 37° C., 20 hours, ±Stdev, n = 2
Method: (§1) The antibiotic disc diffusion assay was performed as described previously to determine the antibiotic susceptibility of the two strains. Briefly, a standardised suspension of the two Pseudomonas strains was used to inoculate Iso-Sensitest agar (ISA) plates to yield semi-confluent growth of each organism. Antibiotic discs containing Gentamicin and Imipenem were applied to the inoculated plates, then incubated at 37° C. for 20 hours. Zones of inhibition were measured to the nearest millimetre.

[2] = test system: Pseudomonas aeruginosa strain PS3; test: as above; conditions: antibiotic disc on Iso-Sensitest agar, 37° C., 20 hours, ±Stdev, n = 2
Method: as §1

[3] = test system: Pseudomonas aeruginosa strain PA01; test: 96-well broth dilution test (MIC) in presence and absence of dendrimer; conditions: for MIC: MHB, 37° C., 24 hours; for Reduction (%) in MIC: with dendrimer (0.1%) versus antibiotic alone
Method: (§2) Briefly, a standard suspension of the two Pseudomonas strains was prepared in Mueller Hinton Broth (MHB), then added to varying concentrations of antibiotic in a 96-well plate. Tests were performed either in the presence or absence of dendrimer (final concentration 0.1%). 96-well plates were incubated at 37° C. for 24 hours, with optical density (620 nm) of cultures monitored over this period using a Multiskan EX plate reader (Thermo Labsystems).

[4] = test system: Pseudomonas aeruginosa strain PS3; test: as above; conditions: for MIC: MHB, 37° C., 24 hours; for Reduction (%) in MIC: with dendrimer (0.1%) versus antibiotic alone
Method: as §2

[5] = presence of dendrimer (final concentration 0.1%)

Row | Compound | Zone of inhibition [1] | Zone of inhibition [2] | MIC ([3]; Pseudomonas aeruginosa, PA01, 24 h, absence of dendrimer, read-out: MIC) [µg/mL] | MIC ([3]; Pseudomonas aeruginosa, PA01, 24 h, presence of dendrimer (final concentration 0.1%), read-out: MIC) [µg/mL] | Reduction (%) in MIC [3] [%] | MIC ([4]; Pseudomonas aeruginosa, PS3, 24 h, absence of dendrimer, read-out: MIC) [µg/mL] | MIC ([4]; Pseudomonas aeruginosa, PS3, 24 h, presence of dendrimer (final concentration 0.1%), read-out: MIC) [µg/mL] | Reduction (%) in MIC [4] [%] | MIC ([3]; absence of dendrimer) [µg/mL] | MIC [3, 5] [µg/mL] | MIC ([4]; absence of dendrimer) [µg/mL] | MIC [4, 5] [µg/mL]
1 | C[C@@H](O)[C@H]1C(=O)N2C(C(=O)O)=C(SCCN=CN)C[C@H]12 [Imipenem] | 12 (±2.8) Mm | 35 (±0.0) Mm | 28.3 (≈ 94.6 µM) | < 0.011 | > 99.9 | 51.1 (≈ 171 µM) | < 0.011 | > 99.9 | – | – | – | –
2 | Gentamicin | 38 (±1.4) Mm | 46 (±0.7) Mm | – | – | 71 | – | – | 78 | 4.64 | 1.34 | 1.45 | 0.32
